Laboratory results reported in patent US10045951B2, “Flaxseed lignan complex and its use thereof” (priority 2007, dated 2018).
Where a SMILES comes first, the peptide text is derived from it. The star is where a group is joined. Cbz = O=C(OCc1ccccc1)*

Key:
LKR cells = assay: MTS cell proliferation assay with proteasomal inhibitor; format: cell-based, mouse; conditions: one day post incubation
Description: FIG. 35: Cancer cell proliferation is inhibited by a known pharmacological proteasome inhibitor. LKR cells were incubated with MG 132, a known pharmacological proteasomal inhibitor and cell proliferation was measured using the MTS assay at one day post incubation. There was a dose dependent decrease in cell proliferation with increasing doses of MG 132.
LKR cells derived from an explant of a pulmonary tumor from an activated K-rasG12D mutant mouse were incubated with differing concentrations of MG 132, a known pharmacological proteasomal inhibitor to assess for cell proliferation using the MTS assay.

PMVEC = assay: tBHQ-induced cell death of PMVEC (LDH release); format: cell-based, mouse; conditions: pretreatment 50 μM; 10 μM tBHQ
Description: Given the in vivo data hereinabove, showing protection of lungs from oxidative injury after flaxseed feeding, a confirmation of similar protection of cells in vitro was desired. Relatively high doses of the electrophile tert-butylhydroquinone (tBHQ) were used to oxidatively stress the cells. […] However, pretreatment of cells with 50 µM of the lignan Enterolactone (EL) was sufficient to protect cells up to 50% from tert-butylhydroquinone (tBHQ)-induced cell death (FIG. 19).

proteasomal activity = assay: Proteasomal inhibition in GFPu-1 cells (anti-GFP immunoblotting); format: cell-based, human; conditions: for amount of proteasomal inhibition as compared to Lactacystin and MG 132 / proteasomal inhibition compared to untreated cells (GFP expression): 16 hours; for proteasomal inhibition compared to untreated cells (GFP expression): EL 1 μM to 100 μM
Description: FIG. 36: Proteasomal inhibition with EL and ED as compared to known pharmacologic inhibitors Lactacystin and MG 132. GFPu-1 kidney epithelial cells were treated for 16 hours with EL and ED at differing concentrations. Proteasomal inhibition was detected by Western blotting using anti-GFP antibody with increased proteasomal inhibition expressed as accumulation of GFP. Representative Western blots are shown with β actin reference (Top panels). Densitometry was performed with β actin normalization, expressed as fold over untreated control±SEM, n=2-6 (Bottom panel). Dotted line represents control expression of GFP. *p<0.005 vs. untreated, **p<0.01 vs. untreated.
GFP^u-1 cells were used to investigate the impact of one of the flaxseed lignans, enterodiole (ED) on proteasomal activity. GFP^u-1 is an human kidney epithelial (HEK)-derived, stably transfected cell line expressing a short degron (CL1) tagged to green fluorescent protein (GFP) as described […].
Using an in vitro means of quantifying proteasomal inhibition with GFPu-1 cells, differing concentrations of the FS lignans EL and ED were compared with known pharmacologic proteasomal inhibitors MG 132 and Lactacystin, incubated for 16 hours prior to processing. Western blotting was performed on whole […] cell lysates using anti-GFP antibodies to quantify the amount of GFP expressed as a marker of the amount of proteasomal inhibition (FIG. 36, Top panels).

LKR = assay: MTS cell proliferation assay with FS lignans: LKR; format: cell-based; conditions: 10 μM for 16 hours
Description: (§1) FIG. 37: FS lignans EL and ED, and their precursor SDG, inhibit cell proliferation in tumor cell lines. Tumor cell lines (LKR, TC-1, and LLC) were incubated with 10 μM or 25 μM of SDG, EL, or ED for 16 hours and processed for MTS assay to measure cell proliferation. The % inhibition of cell growth compared to untreated (no lignan) cell lines was calculated. Bars represent means±SEM. n=3 readings per group.
(§2) Cell proliferation was assessed at this time (time 0), and 24 and 48 hours later.

TC-1 = assay: MTS cell proliferation assay with FS lignans: TC-1; format: cell-based; conditions: 10 μM for 16 hours
Description: as §1, §2

LLC = assay: MTS cell proliferation assay with FS lignans: LLC; format: cell-based; conditions: 10 μM for 16 hours
Description: as §1, §2

[1] = Lignan content in murine plasma (LC/MS/MS); format: in vivo, mice; conditions: oral, 10 % FS (flaxseed) in diet, FS-fed (10% FS) mouse groups, 4 months post-irradiation, read-out: circulating plasma level
Description: Circulating plasma levels of the flaxseed lignans ED and EL at time of sacrifice (4 months' post-XRT) were determined by liquid chromatography tandem mass spectrometry (LC/MS/MS) using commercially available standards in 95% purity (Chromadex, Inc., Santa Ana, Calif.) shown in FIG. 39. Plasma flaxseed lignan levels were evaluated in 3 randomly selected mice per group (irradiated mice; diet initiated at −3, 0, +2, +4, +6 weeks of radiation exposure).
Detection of flaxseed metabolites in the circulation using analytical methods was used to confirm that mice were feeding on the flaxseed-supplemented diet to reach physiologically relevant levels. Mice were maintained on control (0% FS) or treatment (10% FS) diets given ad libitum for either three weeks prior to XRT and for the entire duration of the experiment (4 months), or started on the day of XRT or 2,4,6 weeks post XRT and continued for 4 months (see scheme on FIG. 38). Plasma evaluation for lignan detection was done at 16 weeks post XRT.

[2] = test system: streptozotosin-induced Diabetes mellitus; conditions: SDG-treated animals; cited from earlier work
HO-1 = HO-1 immunoblotting in pulmonary microvascular endothelial cells (PMVEC); format: cell-based, mouse; conditions: 10 μM; 1,2,4,6,8 and 10 hours
Description: For mechanistic studies, there is a need to establish whether purified lignans (in appropriate, “pharmacologically achievable” concentrations) have similar effects in cell culture as lignan complex diets have in animals. HO-1 levels were thus evaluated by immunoblotting in primary cultures of pulmonary microvascular endothelial cells (PMVEC) isolated from mouse lungs. PMVEC were incubated with the lignan enterodiole (ED) in micromolar concentrations (10 µM) similar to that seen in mouse plasma levels. Cells were incubated with ED for 1,2,4,6,8 and 10 hours.

Nrf2 = assay: Nuclear Nrf2 levels in PMVEC; format: cell-based, mouse; conditions: 10 μM
Source text: Nrf2 was detected with our own rabbit polyclonal Antibody (Clone MCS-1a).

[3] = test system: alveolar epithelial cells (A549); assay: H2O2-induced cell death of alveolar epithelial cells (LDH release); format: cell-based; conditions: 10, 50, 100, 200, 500 uM; 10 mM H2O2 for 1-6 hours
Description: In addition, using the same assay system to detect cell death, LDH release, an evaluation of the efficacy of the lignan enterodiole, ED, to protect alveolar epithelial cells (A549) from oxidant-induced cell death was made. In these experiments, cells were pre-incubated withincreasing concentrations of ED (10, 50, 100, 200, 500 uM) and challenged with hydrogen peroxide (10 mM H2O2) for 1-6 hours. […] (FIG. 20).

ROS generation in PMVEC = assay: ROS generation (H2DCF) by PMVEC in simulated I/R flow chamber; format: cell-based, mouse; conditions: 5 μM for 5 h prior to I/R
Description: Mouse pulmonary endothelial cells (PMVEC) were grown on coverslips and placed in a Warner chamber and perfused with culture medium for 24 h at a flow rate of 10 dyn/cm^2. Cells were incubated with the Lignan ED (5 μM) for 5 h prior to I/R loaded with H2DCF to monitor ROS immediately before the experiment. I/R in this chamber is simulated by abrupt cessation of perfusate flow and its reinstatement through the chamber 5 minutes later. The images are in pseudocolor with intensity shown on the side bar.

Row | Structure (SMILES) | cell proliferation inhibition (MTS) (LKR cells) | protection from tBHQ-induced cell death (PMVEC) | amount of proteasomal inhibition as compared to Lactacystin and MG 132 (proteasomal activity) | proteasomal inhibition compared to untreated cells (GFP expression) (proteasomal activity) | cancer cell proliferation rate (MTS) (LKR) | cancer cell proliferation rate (MTS) (TC-1) | cancer cell proliferation rate (MTS) (LLC) | concentration at 16 weeks post XRT [1] | diabetes [2] | serum and pancreatic lipid peroxidation [2] | HO-1 levels (HO-1) | nuclear Nrf2 levels (Nrf2) | protection from oxidant-induced cell death (LDH release) [3] | ROS generation (ROS generation in PMVEC) | GFP levels (proteasomal inhibition) (proteasomal activity; Example 15)
1 | CC(C)C[C@@H](C=O)NC(=O)[C@H](CC(C)C)NC(=O)[C@H](CC(C)C)NC(=O)OCc1ccccc1 [MG 132] (Cbz-Leu-Leu-Leu-aldehyde) | clear dose dependent response | – | – | – | – | – | – | – | – | – | – | – | – | – | –
2 | O=C1OC[C@H](Cc2cccc(O)c2)[C@H]1Cc1cccc(O)c1 [EL, enterolactone] | – | up to 50% | no significant difference | significant increase | significant decrease | significant decrease | significant decrease | 103 to 325 ng/mL | – | – | – | – | – | – | –
3 | COc1cc(C[C@@H](CO[C@@H]2O[C@H](CO)[C@@H](O)[C@H](O)[C@H]2O)[C@H](CO[C@@H]2O[C@H](CO)[C@@H](O)[C@H](O)[C@H]2O)Cc2ccc(O)c(OC)c2)ccc1O [SDG, secoisolariciresinol diglucoside] | – | – | – | – | significant decrease | significant decrease | significant decrease | – | prevention of diabetes | decrease | – | – | – | – | –
4 | OC[C@H](Cc1cccc(O)c1)[C@H](CO)Cc1cccc(O)c1 [ED, enterodiol] | – | – | comparable to only Lactacystin, not MG 132 | significant amount of proteasomal inhibition | significant decrease | significant decrease | significant decrease | 14 to 405 ng/mL | – | – | robust, time-dependent induction | time-dependent increase | significantly protected | near complete abrogation | increased GFP levels in a dose-dependent fashion
